Experimental data: patent US11458144B1, “Methods for using 5-HMF analogs with increased solubility to inhibit or reverse RBC sickling” (King Abdulaziz University, priority 2021, dated 2022)
Where two headings read alike, the source gives them in different places.

Columns and labels:
[1] = system: human cytochrome P450 (CYP) enzymes; assay: In vitro CYP inhibition, panel of seven enzymes (overall statement); format: in vitro ADME; conditions: 0.1 to 100 μM; pooled human liver microsomes
Protocol: (§1) The probe substrates include tacrine (CYP1A2), amodiaquine (CYP2C8), tolbutamide (CYP2C9), mephenytoin (CYP2C19), dextromethorphan (CYP2D6), midazolam (CYP3A4), testosterone (CYP3A4), and bupropion (CYP2B6). […] The assays were performed in duplicate in 96-well plates at 37° C. for 10-60 minutes. The reaction was terminated with addition of methanol, followed by incubation at 4° C. for 10 min and centrifuged at 4° C. for 10 min.

[2] = target: T1, Hb (Homo sapiens, UniProt P68871+P69905, E7V); assay: Hb adduct formation (Hb modification) by cation-exchange HPLC, SS blood lysates; format: binding; conditions: SS RBCs
T1 construct: Using homozygous sickle (SS) blood from patients; endogenous in cells; host or cells: red blood cells of homozygous SS patient blood (hematocrit 20%); clarified lysates measured after incubation
Source text: (§2) The effect of the MMA compounds and positive control 5-HMF on RBC sickling, Hb modification, and Hb oxygen equilibrium was studied utilizing SS blood following previous procedure.^[27]
The Hb adduct formation study also used clarified lysates that were subjected to a cation-exchange HPLC (Hitachi D-7000 Series, Hitachi Instruments, Inc., San Jose, Calif.), and a weak cation-exchange column (Poly CAT A: 30 mm×4.6 mm, Poly LC, Inc., Columbia, Md.).
(§3) Using homozygous sickle (SS) blood from patients, the MMA compounds (MMA502, MMA503, MMA504, MMA505, and MMA509 were tested with 5-HMF as control for Hb adduct formation, effect on Hb affinity for oxygen and corresponding antisickling activities (RBC morphology study) using previously published protocols.^14,15

[3] = system: SS RBCs; assay: Antisickling study (RBC morphology) in SS blood under hypoxia; format: cell-based, human; conditions: 2 mM
Protocol: as §2
For the antisickling study, SS blood (hematocrit 20%) were incubated under air in the absence or presence of all the MMA compounds (0.5 mM, 1 mM and 2 mM) at 37° C. for 1 h, followed by incubating the mixture under hypoxic conditions (2.5% O2) at 37° C. for 2 h. Aliquots with fixed 2% glutaraldehyde solution and under anaerobic condition were subjected to microscopic morphological analysis.^[11]
as §3

[4] = target: T2, CYP1A2 (Homo sapiens, UniProt P05177); assay: In vitro CYP inhibition, pooled human liver microsomes; format: in vitro ADME; conditions: substrate Tacrine
T2 construct: using pooled human liver microsomes as previously published; from tissue; host or cells: pooled human liver microsomes
T2 sequence (P05177 1-516): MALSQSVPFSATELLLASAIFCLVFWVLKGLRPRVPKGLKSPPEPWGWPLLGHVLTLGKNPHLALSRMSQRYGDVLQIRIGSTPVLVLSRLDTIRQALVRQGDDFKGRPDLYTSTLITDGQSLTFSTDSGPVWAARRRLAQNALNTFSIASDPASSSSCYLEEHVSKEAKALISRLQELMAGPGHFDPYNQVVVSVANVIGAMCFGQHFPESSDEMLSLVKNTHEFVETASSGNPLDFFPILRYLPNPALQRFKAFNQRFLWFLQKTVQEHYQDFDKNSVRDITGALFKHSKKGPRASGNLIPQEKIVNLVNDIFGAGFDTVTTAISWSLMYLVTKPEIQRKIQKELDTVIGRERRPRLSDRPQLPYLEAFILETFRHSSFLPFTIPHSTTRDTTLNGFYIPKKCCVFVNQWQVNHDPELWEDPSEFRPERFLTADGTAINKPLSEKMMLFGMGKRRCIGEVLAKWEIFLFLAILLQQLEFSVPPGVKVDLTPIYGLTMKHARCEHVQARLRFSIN
Protocol: as §1

[5] = target: T3, CYP2C8 (Homo sapiens, UniProt P10632); assay: as above; format: in vitro ADME; conditions: substrate Amodiaquine
T3 construct: using pooled human liver microsomes as previously published; from tissue; host or cells: pooled human liver microsomes
T3 sequence (P10632 1-490): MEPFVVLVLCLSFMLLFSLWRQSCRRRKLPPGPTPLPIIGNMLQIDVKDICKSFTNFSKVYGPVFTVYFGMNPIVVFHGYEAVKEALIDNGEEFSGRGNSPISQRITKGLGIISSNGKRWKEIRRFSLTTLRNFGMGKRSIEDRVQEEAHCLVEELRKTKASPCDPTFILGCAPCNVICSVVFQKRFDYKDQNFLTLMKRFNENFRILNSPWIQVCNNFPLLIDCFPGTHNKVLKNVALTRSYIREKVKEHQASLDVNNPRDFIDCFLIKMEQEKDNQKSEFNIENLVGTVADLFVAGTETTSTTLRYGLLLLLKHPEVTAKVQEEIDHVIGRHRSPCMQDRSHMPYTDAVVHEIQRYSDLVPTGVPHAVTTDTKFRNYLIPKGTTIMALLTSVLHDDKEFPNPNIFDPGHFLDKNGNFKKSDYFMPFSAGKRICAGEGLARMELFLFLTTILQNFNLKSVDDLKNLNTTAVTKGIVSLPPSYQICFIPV
Protocol: as §1

[6] = target: T4, HbA (Homo sapiens, UniProt P68871+P69905); assay: Time-dependent Hb oxygen equilibrium study in normal whole blood; format: cell-based; conditions: 2 mM, 20% hematocrit, at 3 hours
T4 construct: time-dependent P50-shift of HbA in normal blood (20% hematocrit); endogenous in cells; host or cells: red blood cells in normal whole blood of adult donors (hematocrit 20%)
Protocol: The time-dependent effect of the MMA compounds and positive control 5-HMF on Hb oxygen affinity was studied using normal blood following previous procedure.^[15] Briefly, normal blood samples (hematocrit 20%) were incubated with the compounds at 37° C. for 24 h. Aliquots were taken at various time points and incubated in IL 237 tonometers (Instrumentation Laboratories, Inc. Lexington, Mass.) for 10 minutes at 37° C., and allowed to equilibrate at oxygen tensions 6, 20, and 40 mmHg. The samples were then aspirated into an ABL 700 Automated Blood Gas Analyzer (Radiometer) to determine the pH, partial pressure of CO2 (pCO2), partial pressure of oxygen (pO2), and Hb oxygen saturation values (SO2). The measured values of pO2 (mmHg) and SO2 at each pO2 value were then subjected to a non-linear regression analysis using the program Scientist (Micromath, Salt Lake City, Utah) to estimate P50 as previously reported.^[28]
5-HMF has a short half-life and poor oral bioavailability due to this metabolic instability, which in part prevented its development for chronic use. Nonetheless, this metabolic instability could be advantageous for parenteral formulation for acute use. […] Briefly, blood samples (hematocrit 20%) were incubated with the compounds at 37° C. for 24 h, and aliquots were taken at the various time points and used to determine the PO2 and SO2 using ABL 800 Automated Blood Gas Analyzer (Radiometer), and to estimate P50 as previously reported.^[10]
The study confirmed the trend in the biological potencies observed with SS blood.

[7] = target: T1, Hb; assay: Oxygen equilibrium study (P50 shift) of lysates from SS blood, Hemox Analyzer; format: cell-based; conditions: SS RBCs
Protocol: as §2
For the oxygen equilibrium study, about 100 μL aliquot of clarified lysate of residual samples from the above antisickling study was added to 4 mL of 0.1 M potassium phosphate buffer, pH 7.0, in cuvettes and subjected to hemoximetry analysis using Hemox™ Analyzer (TCS Scientific Corp., New Hope, Pa.) to assess P50 shift, which is the partial pressure of oxygen (PO2) at which 50% of Hb is saturated with oxygen (SO2). Degree of Hb O2 affinity shift (ΔP50) was expressed as percentage fractions of control DMSO-treated samples.
as §3

[8] = target: CYP3A4 (Homo sapiens, UniProt P08684); assay: In vitro CYP inhibition, pooled human liver microsomes
Protocol: as §1

[9] = target: CYP2D6 (Homo sapiens, UniProt P10635); assay: as above
Protocol: as §1

[10] = target: CYP2C9 (Homo sapiens, UniProt P11712); assay: as above
Protocol: as §1

[11] = target: T5, CYP2B6 (Homo sapiens, UniProt P20813); assay: as above
T5 sequence (P20813 1-491): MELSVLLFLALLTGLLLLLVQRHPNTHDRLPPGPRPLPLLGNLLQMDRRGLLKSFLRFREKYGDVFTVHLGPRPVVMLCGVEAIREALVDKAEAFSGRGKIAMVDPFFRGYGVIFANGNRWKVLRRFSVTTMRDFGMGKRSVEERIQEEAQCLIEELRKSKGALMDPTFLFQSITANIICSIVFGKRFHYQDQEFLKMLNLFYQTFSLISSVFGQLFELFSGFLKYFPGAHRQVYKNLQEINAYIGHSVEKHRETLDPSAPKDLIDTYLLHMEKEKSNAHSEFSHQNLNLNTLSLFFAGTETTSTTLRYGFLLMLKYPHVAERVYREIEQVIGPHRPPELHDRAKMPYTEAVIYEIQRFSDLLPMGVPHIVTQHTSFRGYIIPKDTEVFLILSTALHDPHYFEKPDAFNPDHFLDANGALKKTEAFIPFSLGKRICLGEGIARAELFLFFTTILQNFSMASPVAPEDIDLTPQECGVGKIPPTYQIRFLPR
Protocol: as §1

[12] = target: CYP2C19 (Homo sapiens, UniProt P33261); assay: as above
Protocol: as §1

Q: How did the “inhibition of liver CYP isozymes” value [1] turn out when O=Cc1ccc(CO)o1 [Compound 5-HMF, 5-hydroxymethylfurfural, reference compound] was run?
A: Its value is “no inhibition”.

Q: What about the “% Hb-modification (adduct formation)” value ([2]; 2 mM) of the same molecule?
A: Its value is 33%.

Q: And the “% Hb-modification (adduct formation)” value ([2]; 2 mM, listed as 5HMF)?
A: The value was 33.8 ± 11.7%.

Q: What about the “% Sickling inhibition” value ([3]; SS blood hematocrit 20%, 2.5% O2, 37° C.) of the same molecule?
A: The value was 21.4 ± 0.0%.

Q: What about the inhibition at 2000 µM ([3]; Homo sapiens, SS blood hematocrit 20%, 2.5% O2, 37° C., read-out: % Sickling inhibition) of the same molecule?
A: Its inhibition at 2000 µM is 21%.

Q: And the IC50 [4]?
A: Its IC50 is over 100 µM.

Q: And the IC50 [5]?
A: Its IC50 is over 100 µM.

Q: And the “%P50 shift” value [6]?
A: Its value is 35%.

Q: And the “% Hb-O2 affinity (P50 shift vs DMSO control)” value ([7]; 2 mM)?
A: The value was 27%.

Q: What about the “% Hb-O2 affinity (P50 shift vs DMSO control)” value ([7]; 2 mM, listed as 5HMF) of the same molecule?
A: The value was 27.2 ± 4.9%.

Q: And the IC50 [8]?
A: Its IC50 is over 100 µM.

Q: What about the IC50 ([8]; human, microsomes, pH 7.4) of the same molecule?
A: Its IC50 is over 100 µM.

Q: What about the IC50 [9] of the same molecule?
A: The IC50 was over 100 µM.

Q: And the IC50 [10]?
A: The IC50 was over 100 µM.

Q: What about the IC50 [11] of the same molecule?
A: Its IC50 is over 100 µM.

Q: What about the IC50 [12] of the same molecule?
A: The IC50 was over 100 µM.

Q: What does the source list for O=Cc1ccc(C(F)F)o1 [MMA-502, 5-(difluoromethyl)furan-2-carbaldehyde]?
A: % Hb-modification (adduct formation) ([2]; 0.5 mM): 9.6 ± 0.0%; % Hb-modification (adduct formation) ([2]; 1 mM): 20.4 ± 6.6%; % Hb-modification (adduct formation) ([2]; 2 mM, listed as 502): 42.4 ± 10.9%; % Hb-modification (adduct formation) ([2]; 2 mM, listed as MMA502): 42%; antisickling activity relative to 5-HMF ([3]; over 5-HMF): ~2.5 fold; % Hb-O2 affinity (P50 shift vs DMSO control) ([7]; 0.5 mM): 14.2 ± 3.4%; % Hb-O2 affinity (P50 shift vs DMSO control) ([7]; 1 mM): 8.8 ± 0.5%; % Hb-O2 affinity (P50 shift vs DMSO control) ([7]; 2 mM, listed as 502): 31.5 ± 12.7%; % Hb-O2 affinity (P50 shift vs DMSO control) ([7]; 2 mM, listed as MMA502): 32%

Q: Which results are given for O=Cc1ccc(-c2ccn[nH]2)o1 [MMA-503, 5-(1H-pyrazol-5-yl)furan-2-carbaldehyde]?
A: % Hb-modification (adduct formation) ([2]; 0.5 mM): 4.8 ± 2.1%; % Hb-modification (adduct formation) ([2]; 1 mM): 18.0 ± 7.9%; % Hb-modification (adduct formation) ([2]; 2 mM, listed as 503): 34.6 ± 7.1%; % Hb-modification (adduct formation) ([2]; 2 mM, listed as MMA503): 35%; % Hb-O2 affinity (P50 shift vs DMSO control) ([7]; 0.5 mM): 8.0 ± 1.1%; % Hb-O2 affinity (P50 shift vs DMSO control) ([7]; 1 mM): 20.0 ± 2.5%; % Hb-O2 affinity (P50 shift vs DMSO control) ([7]; 2 mM, listed as 503): 37.1 ± 2.5%; % Hb-O2 affinity (P50 shift vs DMSO control) ([7]; 2 mM, listed as MMA503): 37%
